From US10322140B2, “Preparation and use of 7a-heterocycle substituted-6,6-difluoro bicyclic himbacine derivatives as PAR-1 receptor antagonists” (Merck Sharp & Dohme Corp., priority 2013, dated 2019)

Columns and labels:
PAR-1 receptor = PAR-1 receptor (Homo sapiens (Human), UniProt P25116); assay: PAR-1 FLIPR Assay; assay type: cell-based; details: HEK 293 cells, calcium signal after PAR-1 selective receptor-activating peptide at EC80
Method: This assay measures the potency of the inventive compounds as PAR-1 receptor antagonists.
Frozen HEK 293 Cells were plated in 384-well PDL coated plates at 12000 cells/well in 50 uL of DMEM media containing 10% FBS, pen/strep/L-Glutamine and non-essential amino acids, incubated overnight at 37° C./5% CO2. Media was then removed from the cells, incubated with 33 uL of Calcium-5 dye in assay buffer (Hank's buffer containing 20 mM HEPES, 0.04% Chaps and 2.5 mM Probenecid) for 60 minutes at 37° C. 2 uL of varying concentrations of compound in 40% DMSO in assay buffer (final DMSO concentration is […]) were then added to the cells and incubated at 25° C. for 30 minutes. The plates were added to the FLIPR Tetra®, the device added 5 μL of PAR-1 selective receptor-activating peptide (sequence Ala-parafluoroPhe-Arg-Cha-Cit-Try-NH2, prepared in water) at a concentration equal to the effective concentration that achieved 80% activation of signaling on the day of the experiment. The range of peptide was from 1.5-3 μM. The final volume is 40 uL/well, with 2% DMSO. The FLIPR was read at an excitation wavelength of 480 nm and an emission wavelength of 535 nm, and performed 60 scans over a 1-2 min reading time. The data were analyzed by taking the peak signal over a portion of the range of the 60 scans and dividing this signal by the minimum signal for that same range. The data were expressed as percent inhibition of the maximum divided by the minimum signal achieved at 80% activation produced by the PAR1 activating peptide on the test day. The compounds of Examples 1-13 were tested in the assay described above and the data collected for these compounds is provided.

CYP3A4 = CYP3A4 (Homo sapiens (Human), UniProt P08684); assay: CYP MUX (3A4) RI; assay type: in vitro ADME; details: human liver microsomes, substrate testosterone, 37° C. 10 min
Chain of CYP3A4 (P08684 whole entry): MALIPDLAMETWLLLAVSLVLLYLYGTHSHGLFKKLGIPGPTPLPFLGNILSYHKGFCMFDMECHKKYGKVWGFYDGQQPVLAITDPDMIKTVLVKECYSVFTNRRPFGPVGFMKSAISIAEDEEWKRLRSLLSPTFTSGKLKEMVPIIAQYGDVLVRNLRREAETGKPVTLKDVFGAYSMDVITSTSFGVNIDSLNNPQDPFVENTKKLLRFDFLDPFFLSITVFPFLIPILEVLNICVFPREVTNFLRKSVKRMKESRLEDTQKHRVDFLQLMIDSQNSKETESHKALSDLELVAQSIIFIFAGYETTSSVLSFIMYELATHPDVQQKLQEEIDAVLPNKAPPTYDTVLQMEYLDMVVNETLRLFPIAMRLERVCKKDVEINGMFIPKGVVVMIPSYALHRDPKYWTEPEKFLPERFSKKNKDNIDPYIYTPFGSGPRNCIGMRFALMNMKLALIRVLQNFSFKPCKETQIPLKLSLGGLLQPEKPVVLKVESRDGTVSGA
Source text: This assay measures inhibition of CYP3A4 by a compound. Cytochromes P450 (CYPs) constitute a superfamily of heme-containing enzymes that recognize and metabolize a large number structurally diverse xenobiotics in the human body. CYP3A4 constitutes the largest portion of CYP enzymes in the liver that accounts for the metabolism of almost 50% of all drugs. This assay is used to evaluate the potential of a compound for developing DDIs. (Clarke, S. E.; Jones B. C. Drug-Drug Interactions, New York: Marcel Dekker; 2002. pp. 53-88).
Compound dilutions and assay-ready plates were prepared on a TTP Labtech mosquito® HTS. Assay conduction was fully automated on a customized Screening Platform from Caliper (now PerkinElmer) containing a Mitsubishi robotic plate handler, Liconic incubators, a Caliper Zephyr® liquid handling workstation equipped with temperature-controlled deck positions, a Biotek MultiFlo™ dispenser and an Agilent PlateLoc heat sealer. Assay plates were Corning Costar® 384 well PP plates. High throughput mass spectrometric readout was performed on a RapidFire® 300 system coupled to an AB Sciex API 4000™ triple quadrupole device. CYP isoform 3A4 was incubated in a separate reaction of 50 μL final volume. 25 μL of HLM (human liver microsomes, BD UltraPool™ 150, 0.25 mg/mL final concentration) and the respective substrate, testosterone (75 μM) for 3A4, in potassium phosphate buffer (100 mM, pH=7.4) were added to 250 nL of stamped compound solution (10 mM in DMSO). The reactions were started upon addition of 25 μL of a co-factor solution containing magnesium chloride (3.3 mM), glucose-6-phosphate (3.3 mM), glucose-6-phosphate dehydrogenase (1.4 units) and NADP (1 mM) in potassium phosphate buffer (100 mM, pH=7.4) and incubated on deck at 37° C. for 10 min. 8 μL of each reaction were transferred to the same readout plated filled with 48 μL of stop solution containing internal standards (concentration in final readout plate), 6-hydroxytestosterone-D7 (0.5 μM), 4′-hydroxydiclofenac-D4 (0.2 and dextrorphan-D3 (0.01 in acetonitrile with 0.5% formic acid. After heat sealing, plates were stored at −20° C. for at least 30 min, centrifuged and subjected directly to RapidFire®/MS analysis.

Chain of PAR-1 receptor (P25116 22-425): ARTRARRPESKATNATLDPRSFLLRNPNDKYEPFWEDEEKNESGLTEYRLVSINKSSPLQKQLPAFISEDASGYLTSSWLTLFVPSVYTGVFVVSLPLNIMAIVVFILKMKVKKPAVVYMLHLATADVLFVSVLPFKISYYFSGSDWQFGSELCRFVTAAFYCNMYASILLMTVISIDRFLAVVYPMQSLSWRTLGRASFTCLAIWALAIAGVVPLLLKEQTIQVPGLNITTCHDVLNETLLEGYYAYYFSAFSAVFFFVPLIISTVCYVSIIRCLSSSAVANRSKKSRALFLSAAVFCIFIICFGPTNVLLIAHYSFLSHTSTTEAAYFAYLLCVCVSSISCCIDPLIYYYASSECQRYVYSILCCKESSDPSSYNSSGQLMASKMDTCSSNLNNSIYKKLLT

C[C@H]1OC(=O)[C@]2(c3n[nH]c(=O)o3)CC(F)(F)[C@@H](C)[C@H](/C=C/c3ccc(-c4ccccc4C#N)cn3)[C@H]12 [Example 1, 2-(6-((E)-2-((3R,3aS,4R,5S,7aR)-6,6-difluoro-3,5-dimethyl-1-oxo-7a-(5-oxo-4,5-dihydro-1,3,4-oxadiazol-2-yl)octahydroisobenzofuran-4-yl)vinyl)pyridin-3-yl)benzonitrile]
IC50 (PAR-1 receptor): 0.00422 µM | IC50 (CYP3A4): 21.8 µM

Cc1cccc(-c2ccc(/C=C/[C@@H]3[C@@H]4[C@@H](C)OC(=O)[C@]4(c4n[nH]c(=O)o4)CC(F)(F)[C@H]3C)nc2)c1C#N [Example 2, 2-(6-((E)-2-((3R,3aS,4R,5S,7aR)-6,6-difluoro-3,5-dimethyl-1-oxo-7a-(5-oxo-4,5-dihydro-1,3,4-oxadiazol-2-yl)octahydroisobenzofuran-4-yl)vinyl)pyridin-3-yl)-6-methylbenzonitrile]
IC50 (PAR-1 receptor): 0.00134 µM | IC50 (CYP3A4): 22.8 µM

Cc1cccc(-c2ccc(/C=C/[C@@H]3[C@@H]4[C@@H](C)OC(=O)[C@]4(c4nnc(N)o4)CC(F)(F)[C@H]3C)nc2)c1C#N [Example 3, 2-(6-((E)-2-((3R,3aS,4R,5S,7aR)-7a-(5-amino-1,3,4-oxadiazol-2-yl)-6,6-difluoro-3,5-dimethyl-1-oxooctahydroisobenzofuran-4-yl)vinyl)pyridin-3-yl)-6-methylbenzonitrile]
IC50 (PAR-1 receptor): 0.00122 µM | IC50 (CYP3A4): 10.4 µM

C[C@H]1OC(=O)[C@]2(c3nnc(N)o3)CC(F)(F)[C@@H](C)[C@H](/C=C/c3ccc(-c4ccccc4C#N)cn3)[C@H]12 [Example 4, 2-(6-((E)-2-((3R,3aS,4R,5S,7aR)-7a-(5-amino-1,3,4-oxadiazol-2-yl)-6,6-difluoro-3,5-dimethyl-1-oxooctahydroisobenzofuran-4-yl)vinyl)pyridin-3-yl)benzonitrile]
IC50 (PAR-1 receptor): 0.00308 µM | IC50 (CYP3A4): 9.9 µM

Cc1nnc([C@@]23CC(F)(F)[C@@H](C)[C@H](/C=C/c4ccc(-c5cccc(C)c5C#N)cn4)[C@@H]2[C@@H](C)OC3=O)o1 [Example 5, 2-(6-((E)-2-((3R,3aS,4R,5S,7aR)-6,6-difluoro-3,5-dimethyl-7a-(5-methyl-1,3,4-oxadiazol-2-yl)-1-oxooctahydroisobenzofuran-4-yl)vinyl)pyridin-3-yl)-6-methylbenzonitrile]
IC50 (PAR-1 receptor): 0.00245 µM | IC50 (CYP3A4): 16.9 µM

Cc1cccc(-c2ccc(/C=C/[C@@H]3[C@@H]4[C@@H](C)OC(=O)[C@]4(c4nnc(C5CC5)o4)CC(F)(F)[C@H]3C)nc2)c1C#N [Example 6, 2-(6-((E)-2-((3R,3aS,4R,5S,7aR)-7a-(5-cyclopropyl-1,3,4-oxadiazol-2-yl)-6,6-difluoro-3,5-dimethyl-1-oxooctahydroisobenzofuran-4-yl)vinyl)pyridin-3-yl)-6-methylbenzonitrile]
IC50 (PAR-1 receptor): 0.00207 µM

Cc1cccc(-c2ccc(/C=C/[C@@H]3[C@@H]4[C@@H](C)OC(=O)[C@]4(c4nnc(-c5ccccc5)o4)CC(F)(F)[C@H]3C)nc2)c1C#N [Example 7]
IC50 (PAR-1 receptor): 0.00501 µM

C[C@H]1OC(=O)[C@]2(c3n[nH]c(=O)o3)CC(F)(F)[C@@H](C)[C@H](/C=C/c3ccc(-c4cccc(F)c4)cn3)[C@H]12 [Example 8, 5-((1R,3aR,6S,7R,7aS)-5,5-difluoro-7-((E)-2-(5-(3-fluorophenyl)pyridin-2-yl)vinyl)-1,6-dimethyl-3-oxooctahydroisobenzofuran-3a-yl)-1,3,4-oxadiazol-2(3H)-one]
IC50 (PAR-1 receptor): 0.0287 µM

C[C@H]1OC(=O)[C@]2(c3cc(C(C)(C)C)[nH]n3)CC(F)(F)[C@@H](C)[C@H](/C=C/c3ccc(-c4ccccc4C#N)cn3)[C@H]12 [Example 9, 2-(6-((E)-2-((3R,3aS,4R,5S,7aR)-7a-(5-(tert-butyl)-1H-pyrazol-3-yl)-6,6-difluoro-3,5-dimethyl-1-oxooctahydroisobenzofuran-4-yl)vinyl)pyridin-3-yl)benzonitrile]
IC50 (PAR-1 receptor): 0.0145 µM

C[C@H]1OC(=O)[C@]2(c3cc(C(C)(C)C)n(C)n3)CC(F)(F)[C@@H](C)[C@H](/C=C/c3ccc(-c4ccccc4C#N)cn3)[C@H]12 [Example 10, 2-(6-((E)-2-((3R,3aS,4R,5S,7aR)-7a-(5-(tert-butyl)-1-methyl-1H-pyrazol-3-yl)-6,6-difluoro-3,5-dimethyl-1-oxooctahydroisobenzofuran-4-yl)vinyl)pyridin-3-yl)benzonitrile]
IC50 (PAR-1 receptor): 0.0253 µM | IC50 (CYP3A4): ≥ 50 µM

Cc1cccc(-c2ccc(/C=C/[C@@H]3[C@@H]4[C@@H](C)OC(=O)[C@]4(c4cc(C)n(C)n4)CC(F)(F)[C@H]3C)nc2)c1C#N [Example 11]
IC50 (PAR-1 receptor): 0.0063 µM | IC50 (CYP3A4): 17.6 µM

C[C@H]1OC(=O)[C@]2(c3cc[nH]n3)CC(F)(F)[C@@H](C)[C@H](/C=C/c3ccc(-c4ccccc4C#N)cn3)[C@H]12 [Example 12, 2-(6-((E)-2-((3R,3aS,4R,5S,7aR)-6,6-difluoro-3,5-dimethyl-1-oxo-7a-(1H-pyrazol-3-yl)octa hydroisobenzofuran-4-yl)vinyl)pyridin-3-yl)benzonitrile]
IC50 (PAR-1 receptor): 0.00099 µM | IC50 (CYP3A4): 2.4 µM

C[C@H]1OC(=O)[C@]2(c3cc[nH]n3)CC(F)(F)[C@@H](C)[C@H](/C=C/c3ccc(-c4cccnc4C#N)cn3)[C@H]12 [Example 13, 6′-((E)-2-((3R,3aS,4R,5S,7aR)-6,6-difluoro-3,5-dimethyl-1-oxo-7a-(1H-pyrazol-3-yl)octahydroisobenzofuran-4-yl)vinyl)-[3,3′-bipyridine]-2-carbonitrile]
IC50 (PAR-1 receptor): 0.0062 µM | IC50 (CYP3A4): 8.8 µM
